Laboratory results as given in US10550105B2 (Ribon Therapeutics Inc., priority 2018, dated 2020).

target: PARP7 (Homo sapiens (Human), UniProt Q7Z3E1); assay: Enzymatic assay for inhibition of PARP7: TR-FRET displacement of biotinylated Probe A from the TIPARP active site; assay type: binding; conditions: Table A-1
Procedure, shortened: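 Compounds were tested as dose-response series, and reactions were incubated a further 30 min at 25° C. TR-FRET was read at 320 nm excitation with 615 and 665 nm emission after a 90 μs delay. The 665/615 ratio gave the TIPARP–Probe A complex, and % inhibition was fitted against concentration.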

Sequence of PARP7 (Q7Z3E1 whole entry): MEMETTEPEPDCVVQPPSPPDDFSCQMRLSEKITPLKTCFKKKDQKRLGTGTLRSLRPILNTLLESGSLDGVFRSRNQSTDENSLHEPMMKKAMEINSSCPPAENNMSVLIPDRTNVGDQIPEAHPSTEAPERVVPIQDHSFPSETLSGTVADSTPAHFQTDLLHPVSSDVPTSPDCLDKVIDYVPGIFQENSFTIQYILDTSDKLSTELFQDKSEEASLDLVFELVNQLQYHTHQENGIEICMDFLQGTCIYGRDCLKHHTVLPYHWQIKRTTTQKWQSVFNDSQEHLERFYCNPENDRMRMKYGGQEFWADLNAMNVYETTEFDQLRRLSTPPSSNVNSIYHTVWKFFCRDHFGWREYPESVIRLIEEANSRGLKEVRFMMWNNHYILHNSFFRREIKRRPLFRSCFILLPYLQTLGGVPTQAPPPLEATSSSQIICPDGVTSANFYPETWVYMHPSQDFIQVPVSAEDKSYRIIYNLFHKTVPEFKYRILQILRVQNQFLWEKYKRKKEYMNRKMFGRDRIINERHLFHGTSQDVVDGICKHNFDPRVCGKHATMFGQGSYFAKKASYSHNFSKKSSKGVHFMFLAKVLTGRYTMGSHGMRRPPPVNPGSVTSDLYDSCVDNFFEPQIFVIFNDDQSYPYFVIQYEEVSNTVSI

Row | Structure (SMILES) | IC50
1 | O=c1[nH]ncc(N2Cc3ccc(CNc4ccncc4)cc3C2)c1C(F)(F)F [Example 17, 5-(5-[[(pyridin-4-yl)amino]methyl]-2,3-dihydro-1H-isoindol-2-yl)-4-(trifluoromethyl)-2,3-dihydropyridazin-3-one] | < 100 nM
2 | O=C(CCOC[C@H](Nc1cn[nH]c(=O)c1C(F)(F)F)[C@@H]1CCOC1)N1CCN(c2ncc(C(F)(F)F)cn2)CC1 [Example 614 Isomer D, 5-(((R)-2-(3-Oxo-3-(4-(5-(trifluoromethyl)pyrimidin-2-yl)piperazin-1-yl)propoxy)-1-((S)-tetrahydrofuran-3-yl)ethyl)amino)-4-(trifluoromethyl)pyridazin-3(2H)-one] | < 100 nM
3 | N#Cc1ccc(N2CCN(C(=O)CCOC[C@@H]3c4ncccc4CN3c3cn[nH]c(=O)c3Cl)CC2)nc1 [Example 431, (S)-6-(4-(3-((6-(5-Chloro-6-oxo-1,6-dihydropyridazin-4-yl)-6,7-dihydro-5H-pyrrolo[3,4-b]pyridin-7-yl)methoxy)propanoyl)piperazin-1-yl)nicotinonitrile] | < 100 nM
4 | O=c1[nH]ncc(N2Cc3cc(OCc4cccnc4)cnc3C2)c1C(F)(F)F [Example 336, 5-(3-(Pyridin-3-ylmethoxy)-5,7-dihydro-6H-pyrrolo[3,4-b]pyridin-6-yl)-4-(trifluoromethyl)pyridazin-3(2H)-one] | < 100 nM
5 | O=C(C[C@H]1CC[C@H](CNc2cn[nH]c(=O)c2C(F)(F)F)O1)N1CCN(c2ncc(Cl)cn2)CC1 (single isomer, unassigned) [Example 567 Isomer D] | < 100 nM
6 | C[C@@H]1CN(c2ncc(C(F)(F)F)cn2)CCN1C(=O)CCOC[C@H](C)Nc1cn[nH]c(=O)c1C(F)(F)F (single isomer, unassigned) [Example 619 Isomer B] | < 100 nM
7 | N#Cc1ccc(NC2CCN(C(=O)CCOC[C@@H]3CCCN3c3cn[nH]c(=O)c3C(F)(F)F)CC2)nc1 [Example 116, 6-[[1-(3-[[(2S)-1-[6-oxo-5-(trifluoromethyl)-1,6-dihydropyridazin-4-yl]pyrrolidin-2-yl]methoxy]propanoyl)piperidin-4-yl]amino]pyridine-3-carbonitrile] | < 100 nM
8 | C[C@@H](COc1cn[nH]c(=O)c1C(F)(F)F)OCCC(=O)N1CCN(c2ccc(Cl)cn2)CC1 (single isomer, unassigned) [Example 539 Isomer B] | 100 to 1000 nM
9 | N#Cc1ccc(N2CCN(C(=O)CCCOCCOc3cn[nH]c(=O)c3C(F)(F)F)CC2)nc1 [Example 525, 6-[4-[4-(2-[[6-Oxo-5-(trifluoromethyl)-1,6-dihydropyridazin-4-yl]oxy]ethoxy)butanoyl]piperazin-1-yl]pyridine-3-carbonitrile] | < 100 nM
10 | N#Cc1ccc(N2CCN(C(=O)c3cccc(OCCOc4cn[nH]c(=O)c4C(F)(F)F)c3)CC2)nc1 [Example 42, 6-(4-[[3-(2-[[6-oxo-5-(trifluoromethyl)-1,6-dihydropyridazin-4-yl]oxy]ethoxy)phenyl]carbonyl]piperazin-1-yl)pyridine-3-carbonitrile] | < 100 nM
11 | CCOc1cccc2c1CN(c1cn[nH]c(=O)c1C(F)(F)F)C2 [Example 192, 5-(4-Ethoxyisoindolin-2-yl)-4-(trifluoromethyl)pyridazin-3(2H)-one] | < 100 nM
12 | N#Cc1ccc(N2CCN(C(=O)CCOCCNc3cn[nH]c(=O)c3Cl)CC2)nc1 [Example 507] | < 100 nM
13 | O=c1[nH]ncc(N2Cc3cccc(OC4CCCOC4)c3C2)c1C(F)(F)F (centres unmarked) [Example 268, 5-(4-((Tetrahydro-2H-pyran-3-yl)oxy)isoindolin-2-yl)-4-(trifluoromethyl)pyridazin-3(2H)-one] | < 100 nM
14 | N#Cc1ccc(N2CC3CN(C(=O)CCOC[C@@H]4CCCN4c4cn[nH]c(=O)c4C(F)(F)F)CC3C2)nc1 (stereo in doubt) [Example 113, (S)-6-[5-(3-[[1-[6-oxo-5-(trifluoromethyl)-1,6-dihydropyridazin-4-yl]pyrrolidin-2-yl]methoxy]propanoyl)-octahydropyrrolo[3,4-c]pyrrol-2-yl]pyridine-3-carbonitrile] | < 100 nM
15 | O=c1[nH]ncc(N2Cc3cccc(F)c3C2)c1Cl [Example 60, 4-Chloro-5-(4-fluoro-2,3-dihydro-1H-isoindol-2-yl)-2,3-dihydropyridazin-3-one] | 100 to 1000 nM
16 | C[C@H](COCCC(=O)N1CCN(c2ncc(Cl)cn2)CC1)Oc1cn[nH]c(=O)c1C(F)(F)F [Example 543 Isomer D, (R)-5-(1-(3-(4-(5-chloropyrimidin-2-yl)piperazin-1-yl)-3-oxopropoxy)propan-2-yloxy)-4-(trifluoromethyl)pyridazin-3(2H)-one] | 100 to 1000 nM
17 | O=C(c1cccc(OC[C@H]2c3ccccc3CN2c2cn[nH]c(=O)c2C(F)(F)F)c1)N1CCN(c2ccc(C(F)(F)F)cn2)CC1 (single isomer, unassigned) [Example 30 Isomer A] | ≥ 1000 nM
18 | O=c1[nH]ncc(N2Cc3cccc(OC4CCNC4)c3C2)c1Cl (centres unmarked) [Example 242, 4-Chloro-5-(4-(pyrrolidin-3-yloxy)isoindolin-2-yl)pyridazin-3(2H)-one] | 100 to 1000 nM
19 | N#Cc1ccc(N2CCN(C(=O)CCCCCNc3cn[nH]c(=O)c3C(F)(F)F)CC2)nc1 [Example 511, 6-[4-(6-[[6-Oxo-5-(trifluoromethyl)-1,6-dihydropyridazin-4-yl]amino]hexanoyl)piperazin-1-yl]pyridine-3-carbonitrile] | < 100 nM
20 | CN1CCC(Oc2cccc3c2CN(c2cn[nH]c(=O)c2C(F)(F)F)C3)CC1 [Example 210, 5-(4-((1-Methylpiperidin-4-yl)oxy)isoindolin-2-yl)-4-(trifluoromethyl)pyridazin-3(2H)-one] | 100 to 1000 nM
21 | O=c1[nH]ncc(N2Cc3cccc(OCCO)c3C2)c1C(F)(F)F [Example 181, 5-(4-(2-Hydroxyethoxy)isoindolin-2-yl)-4-(trifluoromethyl)pyridazin-3(2H)-one] | < 100 nM
22 | O=c1[nH]ncc(N2Cc3cccc(NCC4CCCO4)c3C2)c1C(F)(F)F (centres unmarked) [Example 254, 5-(4-(((Tetrahydrofuran-2-yl)methyl)amino)isoindolin-2-yl)-4-(trifluoromethyl)pyridazin-3(2H)-one] | 100 to 1000 nM
23 | N#Cc1ccc(N2CCN(C(=O)CCOC[C@H]3c4ccccc4CN3c3cn[nH]c(=O)c3C(F)(F)F)CC2)nc1 (single isomer, unassigned) [Example 93 Isomer B] | 100 to 1000 nM
24 | O=c1[nH]ncc(N2Cc3c(F)ccc(OCCN4CCOCC4)c3C2)c1C(F)(F)F [Example 286, 5-(4-Fluoro-7-(2-morpholinoethoxy)isoindolin-2-yl)-4-(trifluoromethyl)pyridazin-3(2H)-one] | < 100 nM
25 | CC(C)c1c(N2Cc3cccc(OC4CCNCC4)c3C2)cn[nH]c1=O [Example 248, 4-Isopropyl-5-(4-(piperidin-4-yloxy)isoindolin-2-yl)pyridazin-3(2H)-one] | ≥ 1000 nM
26 | CC1CN(c2ccc(C#N)cn2)CCN1C(=O)c1cccc(OC[C@@H]2CCCN2c2cn[nH]c(=O)c2C(F)(F)F)c1 (stereo partly drawn) [Example 450, 6-(3-methyl-4-(3-(((S)-1-(6-Oxo-5-(trifluoromethyl)-1,6-dihydropyridazin-4-yl)pyrrolidin-2-yl)methoxy)benzoyl)piperazin-1-yl)nicotinonitrile] | < 100 nM
